For one assay, the system named is TNF-α. In words: Intracellular TNF-α estimation in LPS activated murine neutrophils by flowcytometry. As to conditions: for Expression of intracellular TNF-alpha, Mean ± S.E: LPS 10 ng/ml, 3 h. It counts as cell-based. The procedure:
Flowcytometric studies were carried out to determine the anti-inflammatory effect of AD-B-63B on TNF-α cytokine expression in LPS activated murine neutrophils. Neutrophils play essential roles in host defence through their ability to clear bacterial infections. Their inappropriate activation contributes to a variety of inflammatory diseases, from the acute respiratory distress syndrome to asthma, chronic obstructive pulmonary disease and rheumatoid arthritis. TNF-α was chosen as the target for anti-inflammatory activity because of the fact that it is a pro-inflammatory cytokine and plays a major role in the pathogenesis of septic shock induced by LPS (Lipopolysaccharide) endotoxin injection [Remick, D. G.; Strieter, R. M.; Eskandari, M. K.; Nguyen, D. T.; Genord, M. A.; Raiford, C. L. Am. J. Path. 1990, 136, 49.]. LPS is an important triggering factor for in vivo systemic inflammatory response [Bone, R. C. Chest 1991, 100, 802]. LPS activates neutrophils via engagement of TLR4 (Toll-like receptor 4),[Sabroe, I.; Read, R. C.; Whyte, M. K. B.; Dockrell, D. H.; Vogel, S. N.; Dower, S. K. J. Immunol. 2003, 171, 1630.] resulting in the induction of a characteristic pro-inflammatory phenotype and prolongation of cell lifespan [Lee, A.; Whyte, M. K. B.; Haslett, C. J. Leukoc. Biol. 1993, 54, 283].
The anti-inflammatory activity of AD-B-63B was measured by the estimation of intracellular tumor necrosis factor alpha (TNF-α) expression in a gated population of neutrophils [Clara, B., R. C. Arancha, G. M. Andre's, P. Atanasio, A. Julia, and O. Alberto. 2003. A new method for detecting TNF-α-secreting cells using direct immunofluorescence surface membrane stainings. J. Immuno. Methods 264:77-87.]. Murine blood was subjected to centrifugation at 250× g for 20 min. Three layers were formed: an upper layer of platelet-rich plasma, a buffy coat middle layer and a lower layer formed of red blood cells. The middle layer was removed and subjected to Histopaque 1077 (Sigma) gradient separation. The upper layer containing neutrophils was removed and transferred to FACS tubes (Becton Dickinson). Lipopolysaccharide (LPS) derived from Escherichia coli (Sigma) was added at a concentration of 10 ng/ml for the stimulation of the cells. AD-B-63B was added at graded concentrations of 0.5, 1, 2.5, 5, 10 and 20 μg/ml. Samples were incubated for 3 h at 37° C. ( Table 1) Controls consisted of LPS-stimulated cells (LPS control). Further processing was done by the addition of FACS permeabilizing solution (Becton Dickinson), followed by the addition of phycoerythrin (PE)-labeled anti-mouse TNF-α. (Becton Dickinson). The cells were incubated in the dark, and after being washed with sterile PBS, samples were resuspended in PBS (pH 7.4) and acquired directly on the flow cytometer (FACS CANTO; Becton Dickinson). A fluorescence trigger was set on the […] parameter of the gated neutrophil populations (10,000 events). Rolipram at 100 μg/ml was used as standard inhibitor of TNF-α in this study. Fluorescence compensation, data analysis and data presentation were performed using software (Becton Dickinson) (FIG. 1) [Pandey A, Bani S, Kaul S, Sangawan P L; 2010, Selective Th1 upregulation by ethyl acetate fraction of Labisia pumila; 132 (2010) 309-315].

For assay [1], the system named is peritoneal murine macrophages. In words: Phagocytosis of heat killed Candida albicans by murine macrophages (in vitro). It counts as cell-based. On the procedure:
The method of Lehrer (1981) [Lehrer, R. I. Ingestion and destruction of Candida albicans. (1981) In: Methods for studying mono-nuclear phagocytes. Eds. Adams, D. O., Edelson, P. J. and Koren, H. (Academic Press, New York) 693-7081 was followed. The percentage and average number of Candida albicans cells (heatkilled) ingested by peritoneal murine macrophages was calculated. AD-B-63B was tested at the doses of 1, 2.5, Sand 10 μg/mL (Table 4).

The test system of another assay is CD4+ T cells. In words: Lymphocyte immunophenotyping, CD4+ T cell population in SRBC immunised mice. The format is in vivo, Swiss albino mice. As to conditions: graded doses; most significant suppression at 5 and 10 mg/kg vs sensitized control. From the text: Immunophenotyping focuses on lymphocyte populations involved in acquired immunity. Specific molecules present on the cell surface defines characteristics of lymphocytes such as state of activation or functional capabilities. Murine monoclonal antibodies conjugated to a fluorochrome and directed against co-receptors CD4 and CD8 were used in a multi parametric flowcytometric assay to quantify the lymphocyte subsets associated with the cell-mediated immune response.
Estimation of T cell surface markers: On day 0, mice were immunized by injecting 200 μl of 5×10^9 SRBC/ml intraperitonially. Drug administration was carried out for 6 days including the day of immunization. Same amount of SRBC was used to challenge the animals on day 7. After 24 h of challenge, blood was taken from retro-orbital plexus of animals for estimation of CD4^+ and CD8^+ T cells. 100 μl of whole blood was taken in each tube and FITC (fluorescein isothiocyanate) labelled CD4+ and PE (phycoerythrin) labelled CD8+ monoclonal antibodies were added and mixed gently. Tubes were incubated in the dark for 30 min. at room temperature. Subsequently, 2 ml of 1× FACS lysing solution was added at room temperature with gentle mixing. Samples were again incubated at room temperature for 10 min. […]

A further assay relates to IL-2. In words: Intracellular IL-2 expression in SRBC immunised mice. As to conditions: graded doses; most significant suppression at 10 mg/kg p.o. It counts as in vivo, Swiss albino mice. On the procedure:
Estimation of intracellular cytokines: The animals were immunized as mentioned above. After 6 days of drug administration, the animals were challenged on day 7. After 48 h of challenge, the blood was collected in the tubes containing EDTA (anti-coagulant) from retro-orbital plexes of animals to determine the effect of test material on the expression of intracellular IL-2 and IFN-γ (Th1) and IL-4 (Th2) cytokines. In this study, PE labeled IL-2 monoclonal antibody was used in one set and PE labeled IFN-γ and FITC labelled IL-4 monoclonal antibody was used in the other set of experimentation (FIG. 7, 8, 9).

With `CC(=O)OC(C)(C)/C=C/C(=O)[C@](C)(O)[C@H]1[C@H](O)C[C@@]2(C)[C@@H]3CC=C4[C@@H](C=C(O[C@@H]5O[C@H](CO)[C@@H](O)[C@H](O)[C@H]5O)C(=O)C4(C)C)[C@]3(C)C(=O)C[C@]12C` [AD-B-63B, 2-O-β-D-glucopyranosyl cucurbitacin E], the “% TNF-alpha inhibition against LPS control” value is on record as 13.01↓ % in the assay on TNF-α (0.5 μg/ml), 24.16↓ % with TNF-α (1.0 μg/ml), 50.55% with TNF-α (5.0 μg/ml) and 60.59% in the assay on TNF-α (10.0 μg/ml). The “Expression of intracellular TNF-alpha, Mean ± S.E” value with TNF-α (0.5 μg/ml) is listed as 2.34 ± 0.07; in the assay on TNF-α (1.0 μg/ml), 2.04 ± 0.06; in the assay with TNF-α (5.0 μg/ml), 1.33 ± 0.06; in the assay on TNF-α (10.0 μg/ml) it was 1.06 ± 0.03; in the assay with TNF-α ([…]) it was 1.84 ± 0.03. The “% phagocytosis [in vitro study] Mean ± S.E.” value in assay [1] (1 μg/ml) worked out at 24.00 ± 2.32%; in assay [1] (5 μg/ml) it was 18.22 ± 2.11%; in assay [1] (10 μg/ml), 17.33 ± 1.42%. In assay [1] (1 μg/ml), the “percent decrease in phagocytosis” value is on record as “(10.48%↓)”. Besides, the “percentage of CD4+ T-cell population” value with CD4+ T cells is on record as “decrease”. For the same compound, the “expression of intracellular IL-2” value in the assay with IL-2 is reported as “decrease”.

The record behind these values is patent publication US20130136772A1, “REGULATION OF IMMUNE RESPONSE BY COLOCYNTHIN AND/OR ITS DERIVATIVES” (priority 2010, published 2013).
